Results taken from US9480754B2, “Phospholipid ether analogs as cancer-targeting drug vehicles” (Cellectar Biosciences, Inc., priority 2014, dated 2016).

Experiments:
[1] = test system: xenograft, orthotopic and transgenic cancer and cancer stem cell derived animal models; assay: CLR1404 tumor selectivity across 60 tumor models; type: in vivo, rodent; details: 60 different malignant cell lines and tumor types
Protocol: (§1) All described animal studies were performed according to animal protocols approved by the Institutional Animal Care and Use Committee. Female athymic nude mice (Hsd:Athymic Nude-Foxnlnu or Crl:NU-Foxnlnu, Charles River Laboratories) about 4 to 5 weeks of age, 16 to 18 g (n=6), were used for human tumor xenograft studies. Mice were anesthetized with isoflurane and injected subcutaneously with viable tumor cells in 100 μl of Dulbecco's PBS (or, for glioma cells, […] of PBS) into the right flank. Inoculum sizes were 1×10^6 (for renal, ovarian, glioma, pancreatic, prostate, and NSCLC models), […] (for colorectal and uterine models), or 3×10^6 (breast).
(§2) Radioiodinated ^124I-CLR1404 was tested in subcutaneous and orthotopic xenografts of 60 different spontaneous, transgenic, human, and rodent malignant cell lines and tumor types. […] Representative examples are of both human (FIG. 5A-5I) and rodent (FIG. 5J-M) tumors.

Prostate PC-3 = assay: 124I-CLR1404 tumor uptake, model 1; type: in vivo; details: SCID mouse, Adenocarcinoma
Protocol: as §1, §2

Lung NCI H-69 (Oat Cell) = assay: 124I-CLR1404 tumor uptake, model 3; type: in vivo; details: SCID mouse, Small cell carcinoma
Protocol: as §1, §2

Adrenal H-295 = assay: 124I-CLR1404 tumor uptake, model 4; type: in vivo; details: SCID mouse, Adenocarcinoma
Protocol: as §1, §2

Adrenal RL-251 = assay: 124I-CLR1404 tumor uptake, model 5; type: in vivo; details: SCID mouse, Adenocarcinoma
Protocol: as §1, §2

Colon DLD1 = assay: 124I-CLR1404 tumor uptake, model 8; type: in vivo; details: SCID mouse, Adenocarcinoma
Protocol: as §1, §2

Colon HT-29 = assay: 124I-CLR1404 tumor uptake, model 9; type: in vivo; details: SCID mouse, Adenocarcinoma
Protocol: as §1, §2

Colon LS-180 = assay: 124I-CLR1404 tumor uptake, model 10; type: in vivo; details: Nude mouse, Adenocarcinoma
Protocol: as §1, §2

Glioblastoma U87 = assay: 124I-CLR1404 tumor uptake, model 11; type: in vivo; details: Nude mouse and NOD-SCID, Glioma
Protocol: as §1, §2

Melanoma A-375 = assay: 124I-CLR1404 tumor uptake, model 12; type: in vivo; details: Nude mouse
Protocol: as §1, §2

Multiple myeloma MM.1S = assay: 124I-CLR1404 tumor uptake, model 13; type: in vivo; details: Nude mouse
Protocol: as §1, §2

Neuroblastoma SK-N-AS = assay: 124I-CLR1404 tumor uptake, model 14; type: in vivo; details: Nude mouse
Protocol: as §1, §2

Neuroblastoma CHLA-20 = assay: 124I-CLR1404 tumor uptake, model 16; type: in vivo; details: Nude mouse
Protocol: as §1, §2

Neuroblastoma Lan5 = assay: 124I-CLR1404 tumor uptake, model 17; type: in vivo; details: Nude mouse
Protocol: as §1, §2

Ovarian HTB-77 = assay: 124I-CLR1404 tumor uptake, model 18; type: in vivo; details: Nude mouse, Adenocarcinoma
Protocol: as §1, §2

Pancreatic Capan-1 = assay: 124I-CLR1404 tumor uptake, model 22; type: in vivo; details: Nude mouse, Adenocarcinoma
Protocol: as §1, §2

Renal cell Caki-2 = assay: 124I-CLR1404 tumor uptake, model 23; type: in vivo; details: Nude mouse (orthotopic), Clear cell carcinoma
Protocol: as §1, §2

Renal cell ACHN = assay: 124I-CLR1404 tumor uptake, model 24; type: in vivo; details: Nude mouse (orthotopic), Adenocarcinoma
Protocol: as §1, §2

Sarcoma (Meth-A) = assay: 124I-CLR1404 tumor uptake, model 25; type: in vivo; details: Nude mouse, Fibrosarcoma
Protocol: as §1, §2

Head and neck SCC1 = assay: 124I-CLR1404 tumor uptake, model 26; type: in vivo; details: Nude mouse, Squamous cell carcinoma
Protocol: as §1, §2

Prostate LuCap = assay: 124I-CLR1404 tumor uptake, model 29; type: in vivo; details: Mouse, Adenocarcinoma
Protocol: as §1, §2

Breast MCF-7 = assay: 124I-CLR1404 tumor uptake, model 30; type: in vivo; details: Rat, Adenocarcinoma
Protocol: as §1, §2

[2] = test system: Triple negative breast MDA-MB231; assay: 124I-CLR1404 tumor uptake, model 31; type: in vivo; details: Nude mouse, Adenocarcinoma
Protocol: as §1, §2

Glioblastoma 22 GSC = assay: 124I-CLR1404 tumor uptake, model 33; type: in vivo; details: NOD-SCID mouse (orthotopic), Glioma
Protocol: as §1, §2

Glioblastoma 105 GSC = assay: 124I-CLR1404 tumor uptake, model 34; type: in vivo; details: NOD-SCID mouse (orthotopic), Glioma
Protocol: as §1, §2

Bladder SV40 = assay: 124I-CLR1404 tumor uptake, model 36; type: in vivo; details: Mouse (orthotopic), Adenocarcinoma
Protocol: as §1, §2

Prostate MatLyLu = assay: 124I-CLR1404 tumor uptake, model 37; type: in vivo; details: Rat, Adenocarcinoma
Protocol: as §1, §2

TRAMP prostate = assay: 124I-CLR1404 tumor uptake, model 39; type: in vivo; details: Endogenous mouse, Adenocarcinoma
Protocol: as §1, §2

Colon CT26 = assay: 124I-CLR1404 tumor uptake, model 40; type: in vivo; details: SCID mouse, Adenocarcinoma
Protocol: as §1, §2

Colon Pirc = assay: 124I-CLR1404 tumor uptake, model 41; type: in vivo; details: Autochthonous Pirc rat, Adenocarcinoma
Protocol: as §1, §2

Min mouse intestinal = assay: 124I-CLR1404 tumor uptake, model 42; type: in vivo; details: Endogenous mouse, Adenocarcinoma
Protocol: as §1, §2

Melanoma = assay: 124I-CLR1404 tumor uptake, model 43; type: in vivo; details: Mouse
Protocol: as §1, §2

Mammary AC = assay: 124I-CLR1404 tumor uptake, model 45; type: in vivo; details: ApcMin/+ mouse, Adenocarcinoma
Protocol: as §1, §2

Hepatocellular carcinoma = assay: 124I-CLR1404 tumor uptake, model 46; type: in vivo; details: Endogenous mouse, Adenocarcinoma
Protocol: as §1, §2

Glioma L9 = assay: 124I-CLR1404 tumor uptake, model 47; type: in vivo; details: Rat xenograft
Protocol: as §1, §2

Glioma C6 = assay: 124I-CLR1404 tumor uptake, model 48; type: in vivo; details: Rat xenograft
Protocol: as §1, §2

Glioma CNS1 = assay: 124I-CLR1404 tumor uptake, model 49; type: in vivo; details: Rat xenograft
Protocol: as §1, §2

Glioma RG2 = assay: 124I-CLR1404 tumor uptake, model 50; type: in vivo; details: Rat xenograft
Protocol: as §1, §2

Retinoblastoma = assay: 124I-CLR1404 tumor uptake, model 51; type: in vivo; details: Endogenous mouse, Blastoma
Protocol: as §1, §2

Pancreatic Kras = assay: 124I-CLR1404 tumor uptake, model 53; type: in vivo; details: Endogenous mouse, Adenocarcinoma
Protocol: as §1, §2

Esophageal = assay: 124I-CLR1404 tumor uptake, model 55; type: in vivo; details: Endogenous Mouse, Adenocarcinoma
Protocol: as §1, §2

Intestinal polyp = assay: 124I-CLR1404 tumor uptake, model 56; type: in vivo; details: Endogenous mouse, Adenoma (benign)
Protocol: as §1, §2

[3] = test system: Mammary alveolar hyperplasia; assay: 124I-CLR1404 tumor uptake, model 57; type: in vivo; details: Endogenous mouse, Hyperplasia (benign)
Protocol: as §1, §2

Hepatoma Hep-G2 = assay: 124I-CLR1404 tumor uptake, model 59; type: in vivo; details: Nude mouse, Carcinoma
Protocol: as §1, §2

Pirc rat colon adenoma = assay: 124I-CLR1404 tumor uptake, model 60; type: in vivo
Protocol: as §1, §2

Structure (SMILES): C[N+](C)(C)CCOP(=O)([O-])OCCCCCCCCCCCCCCCCCCc1ccc(I)cc1 [^124I-CLR1404]
- tumor localization after intravenous administration [1]: localized in almost all primary and metastatic malignant tumors
- Uptake (Prostate PC-3): Yes (Tumor uptake was considered positive if tumor to muscle ratio was greater than 3.)
- Uptake (Lung NCI H-69 (Oat Cell)): Yes (Tumor uptake was considered positive if tumor to muscle ratio was greater than 3.)
- Uptake (Adrenal H-295): Yes (Tumor uptake was considered positive if tumor to muscle ratio was greater than 3.)
- Uptake (Adrenal RL-251): Yes (Tumor uptake was considered positive if tumor to muscle ratio was greater than 3.)
- Uptake (Colon DLD1): Yes (Tumor uptake was considered positive if tumor to muscle ratio was greater than 3.)
- Uptake (Colon HT-29): Yes (Tumor uptake was considered positive if tumor to muscle ratio was greater than 3.)
- Uptake (Colon LS-180): Yes (Tumor uptake was considered positive if tumor to muscle ratio was greater than 3.)
- Uptake (Glioblastoma U87): Yes (Tumor uptake was considered positive if tumor to muscle ratio was greater than 3.)
- Uptake (Melanoma A-375): Yes (Tumor uptake was considered positive if tumor to muscle ratio was greater than 3.)
- Uptake (Multiple myeloma MM.1S): Yes (Tumor uptake was considered positive if tumor to muscle ratio was greater than 3.)
- Uptake (Neuroblastoma SK-N-AS): Yes (Tumor uptake was considered positive if tumor to muscle ratio was greater than 3.)
- Uptake (Neuroblastoma CHLA-20): Yes (Tumor uptake was considered positive if tumor to muscle ratio was greater than 3.)
- Uptake (Neuroblastoma Lan5): Yes (Tumor uptake was considered positive if tumor to muscle ratio was greater than 3.)
- Uptake (Ovarian HTB-77): Yes (Tumor uptake was considered positive if tumor to muscle ratio was greater than 3.)
- Uptake (Pancreatic Capan-1): Yes (Tumor uptake was considered positive if tumor to muscle ratio was greater than 3.)
- Uptake (Renal cell Caki-2): Yes (Tumor uptake was considered positive if tumor to muscle ratio was greater than 3.)
- Uptake (Renal cell ACHN): Yes (Tumor uptake was considered positive if tumor to muscle ratio was greater than 3.)
- Uptake (Sarcoma (Meth-A)): Yes (Tumor uptake was considered positive if tumor to muscle ratio was greater than 3.)
- Uptake (Head and neck SCC1): Yes (Tumor uptake was considered positive if tumor to muscle ratio was greater than 3.)
- Uptake (Prostate LuCap): Yes (Tumor uptake was considered positive if tumor to muscle ratio was greater than 3.)
- Uptake (Breast MCF-7): Yes (Tumor uptake was considered positive if tumor to muscle ratio was greater than 3.)
- Uptake [2]: Yes (Tumor uptake was considered positive if tumor to muscle ratio was greater than 3.)
- Uptake (Glioblastoma 22 GSC): Yes (Tumor uptake was considered positive if tumor to muscle ratio was greater than 3.)
- Uptake (Glioblastoma 105 GSC): Yes (Tumor uptake was considered positive if tumor to muscle ratio was greater than 3.)
- Uptake (Bladder SV40): Yes (Tumor uptake was considered positive if tumor to muscle ratio was greater than 3.)
- Uptake (Prostate MatLyLu): Yes (Tumor uptake was considered positive if tumor to muscle ratio was greater than 3.)
- Uptake (TRAMP prostate): Yes (Tumor uptake was considered positive if tumor to muscle ratio was greater than 3.)
- Uptake (Colon CT26): Yes (Tumor uptake was considered positive if tumor to muscle ratio was greater than 3.)
- Uptake (Colon Pirc): Yes (Tumor uptake was considered positive if tumor to muscle ratio was greater than 3.)
- Uptake (Min mouse intestinal): Yes (Tumor uptake was considered positive if tumor to muscle ratio was greater than 3.)
- Uptake (Melanoma): Yes (Tumor uptake was considered positive if tumor to muscle ratio was greater than 3.)
- Uptake (Mammary AC): Yes (Tumor uptake was considered positive if tumor to muscle ratio was greater than 3.)
- Uptake (Hepatocellular carcinoma): Yes (Tumor uptake was considered positive if tumor to muscle ratio was greater than 3.)
- Uptake (Glioma L9): Yes (Tumor uptake was considered positive if tumor to muscle ratio was greater than 3.)
- Uptake (Glioma C6): Yes (Tumor uptake was considered positive if tumor to muscle ratio was greater than 3.)
- Uptake (Glioma CNS1): Yes (Tumor uptake was considered positive if tumor to muscle ratio was greater than 3.)
- Uptake (Glioma RG2): Yes (Tumor uptake was considered positive if tumor to muscle ratio was greater than 3.)
- Uptake (Retinoblastoma): Yes (Tumor uptake was considered positive if tumor to muscle ratio was greater than 3.)
- Uptake (Pancreatic Kras): Yes (Tumor uptake was considered positive if tumor to muscle ratio was greater than 3.)
- Uptake (Esophageal): Yes (Tumor uptake was considered positive if tumor to muscle ratio was greater than 3.)
- Uptake (Intestinal polyp): No (Tumor:muscle ratio less than or equal to 2 was considered negative.)
- Uptake [3]: No (Tumor:muscle ratio less than or equal to 2 was considered negative.)
- Uptake (Hepatoma Hep-G2): No (Tumor:muscle ratio less than or equal to 2 was considered negative.)
- Uptake (Pirc rat colon adenoma): No (Tumor:muscle ratio less than or equal to 2 was considered negative.)
